The text below walks through data of patent publication US20250179061A1 (SIRONAX LTD., priority 2022, published 2025).

The assay deals with HT-29 cells. The assay is described as follows: HT-29 necroptosis cell viability assay (TNF-α/SMAC mimetic/zVAD-FMK, CellTiter-Glo). It is filed as cell-based. The note with it: Homo sapiens, read-out: Activity. The method, boiled down: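 Necroptosis was triggered by TNF-α (10 ng/ml), SMAC mimetic (6 μM) and zVAD-FMK (10 μM) in serum-free medium during 20 h compound exposure (10 concentrations, threefold steps) of HT-29 cells. IC50 from duplicate dose-responses uses CellTiter-Glo ATP luminescence as viability read-out.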
Background: Cellular ATP, detected with luciferase, serves as a proxy for viable cell number.

The mark [1] stands for this setting: HT-29, HT-29 necroptosis cell viability, IC50 class symbols.
Where [2] appears, read: HT-29, HT-29 necroptosis cell viability assay, class symbols for IC50.

Structures are written as SMILES. Where two headings read alike, the source gives them in different places. Bounds are passed on as bounds.

Consider `Cc1cccnc1Cn1cnn(-c2ccc(Oc3sc(C(C)(C)O)nc3C)c(F)c2)c1=O` [Example 464, 2-(3-fluoro-4-((2-(2-hydroxypropan-2-yl)-4-methylthiazol-5-yl)oxy)phenyl)-4-((3-methylpyridin-2-yl)methyl)-2,4-dihydro-3H-1,2,4-triazol-3-one], for which the IC50 under setting [1] fell in the range of 100 to 1000 nM. As for `Cc1nc(C(C)(C)O)sc1Oc1ncc(-n2ncn(Cc3c(F)cccc3F)c2=O)cc1F` [Example 465, 4-(2,6-difluorobenzyl)-2-(5-fluoro-6-((2-(2-hydroxypropan-2-yl)-4-methylthiazol-5-yl)oxy)pyridin-3-yl)-2,4-dihydro-3H-1,2,4-triazol-3-one], under setting [1], the IC50 is less than 100 nM. For `Cc1nc(C(C)(C)O)sc1Oc1ccc(-n2ncn(Cc3ncccc3Cl)c2=O)cc1F` [Example 466, 4-((3-chloropyridin-2-yl)methyl)-2-(3-fluoro-4-((2-(2-hydroxypropan-2-yl)-4-methylthiazol-5-yl)oxy)phenyl)-2,4-dihydro-3H-1,2,4-triazol-3-one], the IC50 under setting [1] is less than 100 nM. On to `Cc1nc(C(C)(C)O)sc1Oc1ccc(-n2ncn(Cc3cnccc3Cl)c2=O)cc1F` [Example 467, 4-((4-chloropyridin-3-yl)methyl)-2-(3-fluoro-4-((2-(2-hydroxypropan-2-yl)-4-methylthiazol-5-yl)oxy)phenyl)-2,4-dihydro-3H-1,2,4-triazol-3-one], for which the IC50 under setting [1] fell in the range of 100 to 1000 nM. For `Cc1nc(C(C)(C)O)sc1Oc1ncc(-n2ncn(Cc3c(F)cccc3F)c2=O)cc1Cl` [Example 468, 2-(5-chloro-6-((2-(2-hydroxypropan-2-yl)-4-methylthiazol-5-yl)oxy)pyridin-3-yl)-4-(2,6-difluorobenzyl)-2,4-dihydro-3H-1,2,4-triazol-3-one], the IC50 under setting [1] is less than 100 nM.

In the case of `Cc1nc(C(C)(C)O)sc1Oc1ccc(-n2ncn(Cc3ccccc3F)c2=O)cc1F` [Example 469, 2-(3-fluoro-4-((2-(2-hydroxypropan-2-yl)-4-methylthiazol-5-yl)oxy)phenyl)-4-(2-fluorobenzyl)-2,4-dihydro-3H-1,2,4-triazol-3-one], under setting [1], the IC50 is less than 100 nM. Still for that read-out and setting: next, `Cc1nc(C(C)(C)O)sc1Oc1ccc(-n2ncn(Cc3cc(F)ccc3F)c2=O)cc1F` [Example 470, 4-(2,5-difluorobenzyl)-2-(3-fluoro-4-((2-(2-hydroxypropan-2-yl)-4-methylthiazol-5-yl)oxy)phenyl)-2,4-dihydro-3H-1,2,4-triazol-3-one]: less than 100 nM; `Cc1nc(C(C)(C)O)sc1Oc1ccc(-n2ncn(Cc3cc(Cl)ccn3)c2=O)cc1F` [Example 471, 4-((4-chloropyridin-2-yl)methyl)-2-(3-fluoro-4-((2-(2-hydroxypropan-2-yl)-4-methylthiazol-5-yl)oxy)phenyl)-2,4-dihydro-3H-1,2,4-triazol-3-one]: 1000 to 10000 nM; `Cc1c(C(C)(C)O)noc1Oc1ccc(-n2ncn(Cc3c(F)cccc3F)c2=O)cc1F` [Example 472, 4-(2,6-difluorobenzyl)-2-(3-fluoro-4-((3-(2-hydroxypropan-2-yl)-4-methylisoxazol-5-yl)oxy)phenyl)-2,4-dihydro-3H-1,2,4-triazol-3-one]: 100 to 1000 nM. `Cc1nc(C(C)(C)O)sc1Oc1ccc(-n2ncn(Cc3c(F)cccc3F)c2=O)cc1` [Example 473, 4-(2,6-difluorobenzyl)-2-(4-((2-(2-hydroxypropan-2-yl)-4-methylthiazol-5-yl)oxy)phenyl)-2,4-dihydro-3H-1,2,4-triazol-3-one]: the IC50 under setting [1] was less than 100 nM. Regarding `CC1(C)COC(Nc2cc(Oc3ccc(-n4ncn(Cc5c(F)cccc5F)c4=O)cc3F)c(F)cn2)=N1` [Example 474, 4-(2,6-difluorobenzyl)-2-(4-((2-((4,4-dimethyl-4,5-dihydrooxazol-2-yl)amino)-5-fluoropyridin-4-yl)oxy)-3-fluorophenyl)-2,4-dihydro-3H-1,2,4-triazol-3-one], the IC50 under setting [1] fell in the range of 100 to 1000 nM.

On to `Cc1c(C#N)noc1Oc1ccc(-n2ncn(Cc3c(F)cccc3F)c2=O)cc1F` [Example 475, 5-(4-(4-(2,6-difluorobenzyl)-5-oxo-4,5-dihydro-1H-1,2,4-triazol-1-yl)-2-fluorophenoxy)-4-methylisoxazole-3-carbonitrile], for which, under setting [1], the IC50 is less than 100 nM.

For the compound `Cc1c(C(N)=O)noc1Oc1ccc(-n2ncn(Cc3c(F)cccc3F)c2=O)cc1F` [Example 476, 5-(4-(4-(2,6-difluorobenzyl)-5-oxo-4,5-dihydro-1H-1,2,4-triazol-1-yl)-2-fluorophenoxy)-4-methylisoxazole-3-carboxamide], under setting [1], the IC50 was less than 100 nM. Consider `CCOC(=O)c1noc(Oc2ccc(-n3ncn(Cc4c(F)cccc4F)c3=O)cc2F)c1C` [Example 477, ethyl 5-(4-(4-(2,6-difluorobenzyl)-5-oxo-4,5-dihydro-1H-1,2,4-triazol-1-yl)-2-fluorophenoxy)-4-methylisoxazole-3-carboxylate], for which the IC50 under setting [1] lay in the range of 100 to 1000 nM.

Regarding `CN(c1cc(Oc2ccc(-n3ncn(Cc4c(F)cccc4F)c3=O)cc2)ccn1)C1CC(F)(F)C1` [Example 478, 4-(2,6-difluorobenzyl)-2-(4-((2-((3,3-difluorocyclobutyl)(methyl)amino)pyridin-4-yl)oxy)phenyl)-2,4-dihydro-3H-1,2,4-triazol-3-one], the IC50 under setting [1] lay within 100 to 1000 nM. On to `Cn1ncn(Cc2ccc(-n3ncn(Cc4c(F)cccc4F)c3=O)cc2)c1=O` [Example 479, 4-(2,6-difluorobenzyl)-2-(4-((1-methyl-5-oxo-1,5-dihydro-4H-1,2,4-triazol-4-yl)methyl)phenyl)-2,4-dihydro-3H-1,2,4-triazol-3-one], for which, under setting [1], the IC50 fell in the range of 1000 to 10000 nM. Consider `CC(C)(C)OC(=O)N1CCC2(CC1)CN(c1cc(Oc3ccc(-n4ncn(Cc5c(F)cccc5F)c4=O)cc3)ccn1)C2` [Example 480, tert-butyl2-(4-(4-(4-(2,6-difluorobenzyl)-5-oxo-4,5-dihydro-1H-1,2,4-triazol-1-yl)phenoxy)pyridin-2-yl)-2,7-diazaspiro[3.5]nonane-7-carboxylate], for which the IC50 under setting [2] is less than 100 nM. On to `O=c1n(Cc2c(F)cccc2F)cnn1-c1ccc(Oc2ccnc(N3C[C@H]4COC[C@H]4C3)c2)cc1` [Example 481, 4-(2,6-difluorobenzyl)-2-(4-((2-((3aR,6aS)-tetrahydro-1H-furo[3,4-c]pyrrol-5(3H)-yl)pyridin-4-yl)oxy)phenyl)-2,4-dihydro-3H-1,2,4-triazol-3-one], for which the IC50 under setting [2] fell in the range of 100 to 1000 nM.

For the compound `O=C1CC2(CCOCC2)CN1c1cc(Oc2ccc(-n3ncn(Cc4c(F)cccc4F)c3=O)cc2)ccn1` [Example 482, 2-(4-(4-(4-(2,6-difluorobenzyl)-5-oxo-4,5-dihydro-1H-1,2,4-triazol-1-yl)phenoxy)pyridin-2-yl)-8-oxa-2-azaspiro[4.5]decan-3-one], the IC50 under setting [2] was in the range of 100 to 1000 nM. As for `O=c1n(Cc2c(F)cccc2F)cnn1-c1ccc(Oc2ccnc(N3CC(OCC4CC4)C3)c2)cc1` [Example 483, 2-(4-((2-(3-(cyclopropylmethoxy)azetidin-1-yl)pyridin-4-yl)oxy)phenyl)-4-(2,6-difluorobenzyl)-2,4-dihydro-3H-1,2,4-triazol-3-one], under setting [2], the IC50 fell in the range of 100 to 1000 nM. As for `O=c1n(Cc2c(F)cccc2F)cnn1-c1ccc(Oc2ccnc(NCC3CCCO3)c2)cc1` (stereo not shown) [Example 484, 4-(2,6-difluorobenzyl)-2-(4-((2-(((tetrahydrofuran-2-yl)methyl)amino)pyridin-4-yl)oxy)phenyl)-2,4-dihydro-3H-1,2,4-triazol-3-one], the IC50 under setting [2] was 100 to 1000 nM. Regarding `CN(c1cc(Oc2ccc(-n3ncn(Cc4c(F)cccc4F)c3=O)cc2)ccn1)C1CC1` [Example 485, 2-(4-((2-(cyclopropyl(methyl)amino)pyridin-4-yl)oxy)phenyl)-4-(2,6-difluorobenzyl)-2,4-dihydro-3H-1,2,4-triazol-3-one], under setting [2], the IC50 is 100 to 1000 nM. Consider `CCOC1CN(c2cc(Oc3ccc(-n4ncn(Cc5c(Cl)cccc5Cl)c4=O)cc3)ccn2)C1` [Example 486, 4-(2,6-dichlorobenzyl)-2-(4-((2-(3-ethoxyazetidin-1-yl)pyridin-4-yl)oxy)phenyl)-2,4-dihydro-3H-1,2,4-triazol-3-one], for which the IC50 under setting [2] is 100 to 1000 nM.

For the compound `CN(CC1CCCO1)c1nccc(Oc2ccc(-n3ncn(Cc4c(F)cccc4F)c3=O)cc2)c1F` (stereo not shown) [Example 487, 4-(2,6-difluorobenzyl)-2-(4-((3-fluoro-2-(methyl((tetrahydrofuran-2-yl)methyl)amino)pyridin-4-yl)oxy)phenyl)-2,4-dihydro-3H-1,2,4-triazol-3-one], the IC50 under setting [2] was 100 to 1000 nM. For the compound `CCOC1(C)CN(c2nccc(Oc3ccc(-n4ncn(Cc5c(F)cccc5Cl)c4=O)cc3)c2F)C1` [Example 488, 4-(2-chloro-6-fluorobenzyl)-2-(4-((2-(3-ethoxy-3-methylazetidin-1-yl)-3-fluoropyridin-4-yl)oxy)phenyl)-2,4-dihydro-3H-1,2,4-triazol-3-one], the IC50 under setting [2] was less than 100 nM. Regarding `CCOC1(C)CN(c2cc(Oc3ccc(-n4ncn(Cc5c(F)cccc5Cl)c4=O)cc3)ccn2)C1` [Example 489, 4-(2-chloro-6-fluorobenzyl)-2-(4-((2-(3-ethoxy-3-methylazetidin-1-yl)pyridin-4-yl)oxy)phenyl)-2,4-dihydro-3H-1,2,4-triazol-3-one], under setting [2], the IC50 fell in the range of 100 to 1000 nM. For `CCOC1(C)CN(c2nccc(Oc3ccc(-n4ncn(Cc5c(F)cccc5F)c4=O)cc3)c2F)C1` [Example 490, 4-(2,6-difluorobenzyl)-2-(4-((2-(3-ethoxy-3-methylazetidin-1-yl)-3-fluoropyridin-4-yl)oxy)phenyl)-2,4-dihydro-3H-1,2,4-triazol-3-one], the IC50 under setting [2] was less than 100 nM. Same read-out and setting: the figure for `COC1(C)CN(c2nccc(Oc3ccc(-n4ncn(Cc5c(F)cccc5Cl)c4=O)cc3)c2F)C1` [Example 491, 4-(2-chloro-6-fluorobenzyl)-2-(4-((3-fluoro-2-(3-methoxy-3-methylazetidin-1-yl)pyridin-4-yl)oxy)phenyl)-2,4-dihydro-3H-1,2,4-triazol-3-one] is less than 100 nM.
